The test system of this test is Lewis lung carcinoma i.m., BDF1 mice, T/C %. In words: NCI In Vivo Anticancer Drug Screen. Data for tumor model Lewis Lung Carcinoma (intramuscular) in B6D2F1 (BDF1) mice. The gist of the method: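 Mice carrying transplantable tumours received test compound. Survival or tumour size was recorded and expressed as the treated-group value (T) divided by the vehicle-treated control-group value (C).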

Several values for one entry are separate records, joined by “and”; a condition that tells them apart may be missing. Equal values may be shown once. Records with an inconclusive call do not appear.

As to `COc1c(C)c2c(c(O)c1C/C=C(\C)CCC(=O)O)C(=O)OC2`, the T/C is, setting by setting: (endpoint: mean tumor weight (est.), dose: 25.0 mg/kg/injection, schedule: Q01DX011 (ip), vehicle: saline with Tween-80, higher = larger tumour) 98 % of control; (endpoint: mean tumor weight (est.), dose: 50.0 mg/kg/injection, schedule: Q01DX011 (ip), vehicle: saline with Tween-80, higher = larger tumour) 71 % of control; (endpoint: mean tumor weight (est.), dose: 100.0 mg/kg/injection, schedule: Q01DX011 (ip), vehicle: saline with Tween-80, higher = larger tumour) 57 % of control; (endpoint: mean tumor weight (est.), dose: 200.0 mg/kg/injection, schedule: Q01DX011 (ip), vehicle: saline with Tween-80, higher = larger tumour) 27 % of control; (endpoint: median survival time, dose: 25.0 mg/kg/injection, schedule: Q01DX011 (ip), vehicle: saline with Tween-80, higher = longer survival) 97 % of control; (endpoint: median survival time, dose: 50.0 mg/kg/injection, schedule: Q01DX011 (ip), vehicle: saline with Tween-80, higher = longer survival) 106 % of control. Further, under “endpoint: median survival time, dose: 100.0 mg/kg/injection, schedule: Q01DX011 (ip), vehicle: saline with Tween-80, higher = longer survival”, the T/C is 100 % of control.

`COC1C(O)C(O)OC(CO)C1O` (centres undefined): the T/C is, setting by setting: (endpoint: mean tumor weight (est.), dose: 500.0 mg/kg/injection, schedule: Q01DX011 (ip), vehicle: saline, higher = larger tumour) 83 % of control; (endpoint: mean tumor weight (est.), dose: 1000.0 mg/kg/injection, schedule: Q01DX011 (ip), vehicle: saline, higher = larger tumour) 77 % of control; (endpoint: median survival time, dose: 500.0 mg/kg/injection, schedule: Q01DX011 (ip), vehicle: saline, higher = longer survival) 106 % of control; (endpoint: median survival time, dose: 1000.0 mg/kg/injection, schedule: Q01DX011 (ip), vehicle: saline, higher = longer survival) 112 % of control.

For the molecule `CC(C)n1c2c([n+](C)c1/C=C/c1ccccc1)C(=O)c1ccccc1C2=O`, where the note is “endpoint: mean tumor weight (est.), dose: 1.0 mg/kg/injection, schedule: Q01DX011 (ip), vehicle: saline with Tween-80, higher = larger tumour”, the T/C is 43 % of control.

For the molecule `CC(C(=O)O)N1C(=O)c2ccccc2C1=O` (centres undefined), the T/C reads like this: (endpoint: median survival time, dose: 4.0 mg/kg/injection, schedule: Q01DX009 (ip), vehicle: water, higher = longer survival) 110 % of control; (endpoint: median survival time, dose: 8.0 mg/kg/injection, schedule: Q01DX009 (ip), vehicle: water, higher = longer survival) 107 % of control; (endpoint: median survival time, dose: 16.0 mg/kg/injection, schedule: Q01DX009 (ip), vehicle: water, higher = longer survival) 103 % of control; (endpoint: median survival time, dose: 32.0 mg/kg/injection, schedule: Q01DX009 (ip), vehicle: water, higher = longer survival) 108 % of control.

Turning to `COc1ccc(N=O)c(O)c1`, the T/C was 97 % of control (endpoint: median survival time, dose: 25.0 mg/kg/injection, schedule: Q01DX011 (ip), vehicle: saline, higher = longer survival); 100 % of control (endpoint: median survival time, dose: 50.0 mg/kg/injection, schedule: Q01DX011 (ip), vehicle: saline, higher = longer survival); 110 % of control (endpoint: median survival time, dose: 100.0 mg/kg/injection, schedule: Q01DX011 (ip), vehicle: saline, higher = longer survival).

In the case of `O=NN(CCCl)C(=O)NCC1CCC(CNC(=O)N(CCCl)N=O)CC1` (centres undefined), the T/C by setting is: (endpoint: median survival time, dose: 65.0 mg/kg/injection, schedule: Q07DX003 (ip), vehicle: Klucel (hydroxypropylcellulose) (HPC), higher = longer survival) 116 % of control; (endpoint: median survival time, dose: 108.0 mg/kg/injection, schedule: Q07DX003 (ip), vehicle: Klucel (hydroxypropylcellulose) (HPC), higher = longer survival) 106 % of control; (endpoint: median survival time, dose: 180.0 mg/kg/injection, schedule: Q07DX003 (ip), vehicle: Klucel (hydroxypropylcellulose) (HPC), higher = longer survival) 114 % of control; (endpoint: median survival time, dose: 300.0 mg/kg/injection, schedule: Q07DX003 (ip), vehicle: Klucel (hydroxypropylcellulose) (HPC), higher = longer survival) 106 % of control; (endpoint: median survival time, dose: 500.0 mg/kg/injection, schedule: Q07DX003 (ip), vehicle: Klucel (hydroxypropylcellulose) (HPC), higher = longer survival) 114 % of control.

With `Cc1[nH]c(=O)[nH]c(=O)c1N(CCF)CCCl`, the T/C runs as follows: (endpoint: mean tumor weight (est.), dose: 5.0 mg/kg/injection, schedule: Q01DX011 (ip), vehicle: saline with Tween-80, higher = larger tumour) 69 % of control; (endpoint: mean tumor weight (est.), dose: 5.0 mg/kg/injection, schedule: Q01DX011 (ip), vehicle: saline, higher = larger tumour) 81 % of control; (endpoint: mean tumor weight (est.), dose: 10.0 mg/kg/injection, schedule: Q01DX011 (ip), vehicle: saline with Tween-80, higher = larger tumour) 74 % of control; (endpoint: mean tumor weight (est.), dose: 10.0 mg/kg/injection, schedule: Q01DX011 (ip), vehicle: saline, higher = larger tumour) 80 % of control; (endpoint: mean tumor weight (est.), dose: 20.0 mg/kg/injection, schedule: Q01DX011 (ip), vehicle: saline with Tween-80, higher = larger tumour) 54 % of control; (endpoint: mean tumor weight (est.), dose: 20.0 mg/kg/injection, schedule: Q01DX011 (ip), vehicle: saline, higher = larger tumour) 28 % of control. Besides, the T/C was 24 % of control (endpoint: mean tumor weight (est.), dose: 40.0 mg/kg/injection, schedule: Q01DX011 (ip), vehicle: saline with Tween-80, higher = larger tumour); 101 % of control (endpoint: median survival time, dose: 5.0 mg/kg/injection, schedule: Q01DX011 (ip), vehicle: saline with Tween-80, higher = longer survival); 109 % of control (endpoint: median survival time, dose: 5.0 mg/kg/injection, schedule: Q01DX011 (ip), vehicle: saline, higher = longer survival); 105 % of control (endpoint: median survival time, dose: 10.0 mg/kg/injection, schedule: Q01DX011 (ip), vehicle: saline with Tween-80, higher = longer survival); 119 % of control (endpoint: median survival time, dose: 10.0 mg/kg/injection, schedule: Q01DX011 (ip), vehicle: saline, higher = longer survival); 100 % of control (endpoint: median survival time, dose: 20.0 mg/kg/injection, schedule: Q01DX011 (ip), vehicle: saline with Tween-80, higher = longer survival).

As for `COc1cc([C@@H]2c3cc4c(c(O)c3C[C@H]3COC(=O)[C@@H]32)OCO4)cc(OC)c1OC`, the T/C is, setting by setting: (endpoint: mean tumor weight (est.), dose: 0.5 mg/kg/injection, schedule: Q01DX011 (ip), vehicle: Klucel (hydroxypropylcellulose) (HPC), higher = larger tumour) 106 % of control; (endpoint: mean tumor weight (est.), dose: 2.0 mg/kg/injection, schedule: Q01DX011 (ip), vehicle: Klucel (hydroxypropylcellulose) (HPC), higher = larger tumour) 93 % of control.

Turning to `Clc1ccc2nc(CI)c(CI)nc2c1`, the T/C was 78 % of control (endpoint: mean tumor weight (est.), dose: 3.12 mg/kg/injection, schedule: Q01DX011 (ip), vehicle: saline with Tween-80, higher = larger tumour); 82 % of control (endpoint: mean tumor weight (est.), dose: 6.25 mg/kg/injection, schedule: Q01DX011 (ip), vehicle: saline with Tween-80, higher = larger tumour); 89 % of control (endpoint: mean tumor weight (est.), dose: 12.5 mg/kg/injection, schedule: Q01DX011 (ip), vehicle: saline with Tween-80, higher = larger tumour); 94 % of control (endpoint: median survival time, dose: 3.12 mg/kg/injection, schedule: Q01DX011 (ip), vehicle: saline with Tween-80, higher = longer survival); 98 % of control (endpoint: median survival time, dose: 6.25 mg/kg/injection, schedule: Q01DX011 (ip), vehicle: saline with Tween-80, higher = longer survival); 88 % of control (endpoint: median survival time, dose: 12.5 mg/kg/injection, schedule: Q01DX011 (ip), vehicle: saline with Tween-80, higher = longer survival).

On to `Nc1nc(Cl)nc2c1ncn2C1CC(O)C(CO)O1` (centres undefined), for which the T/C reads like this: (endpoint: median survival time, dose: 8.0 mg/kg/injection, schedule: Q01DX Z (ip), vehicle: other, higher = longer survival) 93 % of control and 95 % of control; (endpoint: median survival time, dose: 16.0 mg/kg/injection, schedule: Q01DX Z (ip), vehicle: other, higher = longer survival) 113 % of control; (endpoint: median survival time, dose: 32.0 mg/kg/injection, schedule: Q01DX Z (ip), vehicle: other, higher = longer survival) 86 % of control.

In the case of `CNNCc1ccc(C(=O)NC(C)C)cc1`, the T/C is 86 % of control (endpoint: mean tumor weight (est.), dose: 23.0 mg/kg/injection, schedule: Q01DX009 (ip), vehicle: saline, higher = larger tumour); 95 % of control (endpoint: mean tumor weight (est.), dose: 39.0 mg/kg/injection, schedule: Q01DX009 (ip), vehicle: saline, higher = larger tumour); 64 % of control (endpoint: mean tumor weight (est.), dose: 65.0 mg/kg/injection, schedule: Q01DX009 (ip), vehicle: saline, higher = larger tumour); 79 % of control (endpoint: mean tumor weight (est.), dose: 108.0 mg/kg/injection, schedule: Q01DX009 (ip), vehicle: saline, higher = larger tumour); 95 % of control (endpoint: mean tumor weight (est.), dose: 180.0 mg/kg/injection, schedule: Q01DX009 (ip), vehicle: saline, higher = larger tumour); 37 % of control (endpoint: mean tumor weight (est.), dose: 300.0 mg/kg/injection, schedule: Q01DX009 (ip), vehicle: saline, higher = larger tumour). Moreover, the T/C reads like this: (endpoint: mean tumor weight, dose: 23.0 mg/kg/injection, schedule: Q01DX011 (ip), vehicle: saline, higher = larger tumour) 100 % of control; (endpoint: mean tumor weight, dose: 37.5 mg/kg/injection, schedule: Q01DX011 (ip), vehicle: saline, higher = larger tumour) 78 % of control; (endpoint: mean tumor weight, dose: 39.0 mg/kg/injection, schedule: Q01DX011 (ip), vehicle: saline, higher = larger tumour) 72 % of control; (endpoint: mean tumor weight, dose: 65.0 mg/kg/injection, schedule: Q01DX011 (ip), vehicle: saline, higher = larger tumour) 37 % of control; (endpoint: mean tumor weight, dose: 75.0 mg/kg/injection, schedule: Q01DX011 (ip), vehicle: saline, higher = larger tumour) 62 % of control; (endpoint: mean tumor weight, dose: 108.0 mg/kg/injection, schedule: Q01DX011 (ip), vehicle: saline, higher = larger tumour) 62 % of control. The T/C is 35 % of control (endpoint: mean tumor weight, dose: 150.0 mg/kg/injection, schedule: Q01DX011 (ip), vehicle: saline, higher = larger tumour); 41 % of control (endpoint: mean tumor weight, dose: 180.0 mg/kg/injection, schedule: Q01DX011 (ip), vehicle: saline, higher = larger tumour); 97 % of control (endpoint: median survival time, dose: 37.5 mg/kg/injection, schedule: Q01DX011 (ip), vehicle: saline, higher = longer survival); 91 % of control (endpoint: median survival time, dose: 75.0 mg/kg/injection, schedule: Q01DX011 (ip), vehicle: saline, higher = longer survival); 95 % of control (endpoint: median survival time, dose: 150.0 mg/kg/injection, schedule: Q01DX011 (ip), vehicle: saline, higher = longer survival).

The values are drawn from PubChem BioAssay AID272 (DTP/NCI, 2004).
